Bridge positions count the residues as written; N and C are the ends. Square brackets hold non-standard residues; d marks the D form. Peptide text beside a SMILES is read from it. Oic = O=C(O)[C@@H]1C[C@@H]2CCCC[C@@H]2N1; 1Nal = N[C@@H](Cc1cccc2ccccc12)C(=O)O; 2Nal = N[C@@H](Cc1ccc2ccccc2c1)C(=O)O; hArg = N=C(N)NCCCC[C@H](N)C(=O)O; Cit = NC(=O)NCCC[C@H](N)C(=O)O; Nle = CCCC[C@H](N)C(=O)O; Aze = O=C(O)[C@@H]1CCN1; Ahx = NCCCCCC(=O)O
biological target: T1, CGRP1 receptor (Homo sapiens, UniProt O60894+Q16602); test: in vitro CGRP1 receptor mediated cAMP assay in SK-N-MC cells; assay type: cell-based; conditions: Table 2C; unconjugated peptide; read-out: Peptide IC50
T1 construct: SK-N-MC cells express CRLR and RAMP1, which form CGRP1 receptor; endogenous in cells; host or cells: SK-N-MC human neuroblastoma cells
T1 sequence (Q16602 23-461): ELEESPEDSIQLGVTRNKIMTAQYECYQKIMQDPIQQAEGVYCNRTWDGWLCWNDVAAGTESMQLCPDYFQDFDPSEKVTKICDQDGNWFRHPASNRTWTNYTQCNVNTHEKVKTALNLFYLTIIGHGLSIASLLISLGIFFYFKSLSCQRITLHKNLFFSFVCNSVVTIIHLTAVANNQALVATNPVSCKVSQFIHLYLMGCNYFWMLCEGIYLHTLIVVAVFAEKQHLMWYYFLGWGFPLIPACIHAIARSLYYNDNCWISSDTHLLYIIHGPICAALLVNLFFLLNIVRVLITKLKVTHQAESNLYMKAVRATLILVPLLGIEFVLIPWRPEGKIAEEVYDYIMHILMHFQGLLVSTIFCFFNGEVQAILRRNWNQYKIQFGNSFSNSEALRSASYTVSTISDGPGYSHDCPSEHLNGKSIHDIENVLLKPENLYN
T1 sequence (O60894 27-148): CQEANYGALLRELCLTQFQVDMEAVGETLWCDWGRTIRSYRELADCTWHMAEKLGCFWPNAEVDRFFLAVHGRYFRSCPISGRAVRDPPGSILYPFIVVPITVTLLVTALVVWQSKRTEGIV
How it was run: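 Human SK-N-MC neuroblastoma cells, which endogenously express CRLR/RAMP1, were plated two days before assay and preincubated in plasma-free medium for 15 minutes at room temperature. Cells were then lysed for 30 minutes at 37° C, and cAMP in the lysates was quantified by competitive cAMP-AP chemiluminescent ELISA.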

Row | Compound | IC50 [nM]
1 | CC(=O)N[C@@H](Cc1c[nH]c2ccccc12)C(=O)N[C@H](C(=O)N[C@H]1CCC(=O)NCCCC[C@@H](C(=O)NCC(=O)N[C@@H](CC(C)C)C(=O)N[C@@H](CC(C)C)C(=O)N[C@@H](CO)C(=O)N[C@@H](CCCNC(N)=O)C(=O)N[C@@H](CO)C(=O)NCC(=O)N2CC[C@H]2C(=O)N[C@H](C(=O)N[C@H](C(=O)N[C@@H](CCCCNC(=N)N)C(=O)N[C@@H](CCCCN)C(=O)N[C@@H](CC(N)=O)C(=O)N[C@@H](Cc2ccccc2)C(=O)N[C@H](C(=O)N2CCC[C@H]2C(=O)N[C@H](C(=O)N[C@@H](CC(=O)O)C(=O)N[C@H](C(=O)NCC(=O)N2CCC[C@H]2C(=O)N[C@@H](Cc2ccccc2)C(=O)N[C@@H](C)C(=O)N[C@@H](Cc2ccccc2)C(N)=O)C(C)C)[C@@H](C)O)C(C)C)C(C)C)C(C)C)NC(=O)[C@H](CC(C)C)NC(=O)[C@H](CCCCNC(=N)N)NC(=O)[C@H](Cc2c[nH]cn2)NC1=O)C(C)C [compound 909] (Ac-WVEH[hArg]LKGLLS[Cit]SG[Aze]VV[hArg]KNFVPTDVGPFAF-NH2; lactam 3-7) | 3.45
2 | CC(=O)N[C@@H](Cc1cccc2ccccc12)C(=O)N[C@H](C(=O)N[C@@H](CCC(=O)O)C(=O)N[C@@H](Cc1c[nH]cn1)C(=O)N[C@@H](CCCCNC(=N)N)C(=O)N[C@@H](CC(C)C)C(=O)N[C@@H](CCCCN)C(=O)NCC(=O)N[C@@H](CC(C)C)C(=O)N[C@@H](CC(C)C)C(=O)N[C@@H](CO)C(=O)N[C@@H](CCCNC(N)=O)C(=O)N[C@@H](CO)C(=O)NCC(=O)N1CC[C@H]1C(=O)N[C@H](C(=O)N[C@H](C(=O)N[C@@H](CCCCNC(=N)N)C(=O)N[C@@H](CCCCN)C(=O)N[C@@H](CC(N)=O)C(=O)N[C@@H](Cc1ccccc1)C(=O)N[C@H](C(=O)N1CCC[C@H]1C(=O)N[C@H](C(=O)N[C@@H](CC(=O)O)C(=O)N[C@H](C(=O)NCC(=O)N1CCC[C@H]1C(=O)N[C@@H](Cc1ccccc1)C(=O)N[C@@H](C)C(=O)N[C@@H](Cc1ccccc1)C(N)=O)C(C)C)[C@@H](C)O)C(C)C)C(C)C)C(C)C)C(C)C [compound 910] | 2.31
3 | CC(C)C[C@H](NC(=O)CNC(=O)[C@H](C)NC(=O)[C@H](CC(C)C)NC(=O)[C@H](CCCNC(=N)N)NC(=O)[C@H](Cc1c[nH]cn1)NC(=O)[C@@H](NC(=O)[C@@H](NC(=O)[C@H](Cc1c[nH]c2ccccc12)NC(=O)CCCCCNC(=O)[C@@H](N)CS)C(C)C)[C@@H](C)O)C(=O)N[C@@H](CC(C)C)C(=O)N[C@@H](CO)C(=O)N[C@@H](CCCNC(=N)N)C(=O)N[C@@H](CO)C(=O)NCC(=O)NCC(=O)N[C@H](C(=O)N[C@H](C(=O)N[C@@H](CCCNC(=N)N)C(=O)N[C@@H](CCCCN)C(=O)N[C@@H](CC(N)=O)C(=O)N[C@@H](Cc1ccccc1)C(=O)N[C@H](C(=O)N1CCC[C@H]1C(=O)N[C@H](C(=O)N[C@@H](CC(=O)O)C(=O)N[C@H](C(=O)NCC(=O)N1CCC[C@H]1C(=O)N[C@@H](Cc1ccccc1)C(=O)N[C@@H](C)C(=O)N[C@@H](Cc1ccccc1)C(N)=O)C(C)C)[C@@H](C)O)C(C)C)C(C)C)C(C)C [compound 916] (H-C[Ahx]WVTHRLAGLLSRSGGVVRKNFVPTDVGPFAF-NH2) | 1.8
4 | CC(=O)N[C@@H](Cc1c[nH]c2ccccc12)C(=O)N[C@H](C(=O)N[C@H](C(=O)N[C@@H](Cc1c[nH]cn1)C(=O)N[C@@H](CCCNC(N)=O)C(=O)N[C@@H](CC(C)C)C(=O)N[C@@H](C)C(=O)NCC(=O)N[C@@H](CC(C)C)C(=O)N[C@@H](CC(C)C)C(=O)N[C@@H](CO)C(=O)N[C@@H](CCCNC(N)=O)C(=O)N[C@@H](CO)C(=O)NCC(=O)NCC(=O)N[C@H](C(=O)N[C@H](C(=O)N[C@@H](CCCNC(=N)N)C(=O)N[C@@H](CCCCN)C(=O)N[C@@H](CC(N)=O)C(=O)N[C@@H](Cc1ccccc1)C(=O)N[C@H](C(=O)N1CCC[C@H]1C(=O)N[C@H](C(=O)N[C@@H](CC(=O)O)C(=O)N[C@H](C(=O)NCC(=O)N1CCC[C@H]1C(=O)N[C@@H](Cc1ccccc1)C(=O)N[C@@H](C)C(=O)N[C@@H](Cc1ccc(I)cc1)C(N)=O)C(C)C)[C@@H](C)O)C(C)C)C(C)C)C(C)C)[C@@H](C)O)C(C)C [compound 923] | 2.24
5 | CC(=O)N[C@@H](Cc1c[nH]c2ccccc12)C(=O)N[C@H](C(=O)N[C@H](C(=O)N[C@@H](Cc1c[nH]cn1)C(=O)N[C@@H](CCCNC(N)=O)C(=O)N[C@@H](CC(C)C)C(=O)N[C@@H](C)C(=O)NCC(=O)N[C@@H](CC(C)C)C(=O)N[C@@H](CC(C)C)C(=O)N[C@@H](CO)C(=O)N[C@@H](CCCNC(N)=O)C(=O)N[C@@H](CO)C(=O)NCC(=O)NCC(=O)N[C@H](C(=O)N[C@H](C(=O)N[C@@H](CCCCNC(=N)N)C(=O)N[C@@H](CCCCN)C(=O)N[C@@H](CC(N)=O)C(=O)N[C@@H](Cc1ccc(I)cc1)C(=O)N[C@H](C(=O)N1CCC[C@H]1C(=O)N[C@H](C(=O)N[C@@H](CC(=O)O)C(=O)N[C@H](C(=O)NCC(=O)N1CCC[C@H]1C(=O)N[C@@H](Cc1ccc(I)cc1)C(=O)N[C@@H](C)C(=O)N[C@@H](Cc1ccccc1)C(N)=O)C(C)C)[C@@H](C)O)C(C)C)C(C)C)C(C)C)[C@@H](C)O)C(C)C [compound 928] | 1.16
6 | CCCC[C@H](NC(=O)[C@@H](NC(=O)CNC(=O)CNC(=O)[C@H](CO)NC(=O)[C@H](CCCNC(N)=O)NC(=O)[C@H](CO)NC(=O)[C@H](CC(C)C)NC(=O)[C@H](CC(C)C)NC(=O)CNC(=O)[C@H](C)NC(=O)[C@H](CC(C)C)NC(=O)[C@H](CCCNC(N)=O)NC(=O)[C@H](Cc1c[nH]cn1)NC(=O)[C@@H](NC(=O)[C@@H](NC(=O)[C@H](Cc1c[nH]c2ccccc12)NC(C)=O)C(C)C)[C@@H](C)O)C(C)C)C(=O)N[C@@H](CCCNC(=N)N)C(=O)N[C@@H](CCCCN)C(=O)N[C@@H](CC(N)=O)C(=O)N[C@@H](Cc1ccccc1)C(=O)N[C@H](C(=O)N1CCC[C@H]1C(=O)N[C@H](C(=O)N[C@@H](CC(=O)O)C(=O)N[C@H](C(=O)NCC(=O)N1CCC[C@H]1C(=O)N[C@@H](Cc1ccccc1)C(=O)N[C@@H](C)C(=O)N[C@@H](Cc1ccccc1)C(N)=O)C(C)C)[C@@H](C)O)C(C)C [compound 940] (Ac-WVTH[Cit]LAGLLS[Cit]SGGV[Nle]RKNFVPTDVGPFAF-NH2) | 1.85

Further compounds by falling IC50, results first:

Row | IC50 [nM] | Compound
7 | 1.16 | CC(=O)N[C@@H](Cc1c[nH]c2ccccc12)C(=O)N[C@H](C(=O)N[C@H](C(=O)N[C@@H](Cc1c[nH]cn1)C(=O)N[C@@H](CCCNC(=N)N)C(=O)N[C@@H](CC(C)C)C(=O)N[C@@H](C)C(=O)NCC(=O)N[C@@H](CC(C)C)C(=O)N[C@@H](CC(C)C)C(=O)N[C@@H](CO)C(=O)N[C@@H](CCCNC(=N)N)C(=O)N[C@@H](CO)C(=O)NCC(=O)NCC(=O)N[C@H](C(=O)N[C@H](C(=O)N[C@@H](CCCNC(=N)N)C(=O)N[C@@H](CCCCN)C(=O)N[C@@H](CC(N)=O)C(=O)N[C@@H](Cc1ccc2ccccc2c1)C(=O)N[C@H](C(=O)N1CCC[C@H]1C(=O)N[C@H](C(=O)N[C@@H](CC(=O)O)C(=O)N[C@H](C(=O)NCC(=O)N1CCC[C@H]1C(=O)N[C@@H](Cc1ccccc1)C(=O)N[C@@H](C)C(=O)N[C@@H](Cc1ccccc1)C(N)=O)C(C)C)[C@@H](C)O)C(C)C)C(C)C)C(C)C)[C@@H](C)O)C(C)C [compound 912] (Ac-WVTHRLAGLLSRSGGVVRKN[2Nal]VPTDVGPFAF-NH2)
8 | 0.88 | CC(=O)N[C@@H](Cc1c[nH]c2ccccc12)C(=O)N[C@H](C(=O)N[C@H](C(=O)N[C@@H](Cc1c[nH]cn1)C(=O)N[C@@H](CCCCNC(=N)N)C(=O)N[C@@H](CC(C)C)C(=O)N[C@@H](C)C(=O)NCC(=O)N[C@@H](CC(C)C)C(=O)N[C@@H](CC(C)C)C(=O)N[C@@H](CO)C(=O)N[C@@H](CCCNC(N)=O)C(=O)N[C@@H](CO)C(=O)NCC(=O)NCC(=O)N[C@H](C(=O)N[C@H](C(=O)N[C@@H](CCCCNC(=N)N)C(=O)N[C@@H](CCCCN)C(=O)N[C@@H](CC(N)=O)C(=O)N[C@@H](Cc1ccccc1)C(=O)N[C@H](C(=O)N1CCC[C@H]1C(=O)N[C@H](C(=O)N[C@@H](CC(=O)O)C(=O)N[C@H](C(=O)NCC(=O)N1CCC[C@H]1C(=O)N[C@@H](Cc1ccc2ccccc2c1)C(=O)N[C@@H](C)C(=O)N[C@@H](Cc1ccccc1)C(N)=O)C(C)C)[C@@H](C)O)C(C)C)C(C)C)C(C)C)[C@@H](C)O)C(C)C [compound 926] (Ac-WVTH[hArg]LAGLLS[Cit]SGGVV[hArg]KNFVPTDVGP[2Nal]AF-NH2)
9 | 0.88 | CC(=O)N[C@@H](Cc1c[nH]c2ccccc12)C(=O)N[C@H](C(=O)N[C@H](C(=O)N[C@@H](Cc1c[nH]cn1)C(=O)N[C@@H](CCCNC(N)=O)C(=O)N[C@@H](CC(C)C)C(=O)N[C@@H](C)C(=O)NCC(=O)N[C@@H](CC(C)C)C(=O)N[C@@H](CC(C)C)C(=O)N[C@@H](CO)C(=O)N[C@@H](CCCNC(N)=O)C(=O)N[C@@H](CO)C(=O)NCC(=O)NCC(=O)N[C@H](C(=O)N[C@H](C(=O)N[C@@H](CCCCNC(=N)N)C(=O)N[C@@H](CCCCN)C(=O)N[C@@H](CC(N)=O)C(=O)N[C@@H](Cc1ccccc1)C(=O)N[C@H](C(=O)N1CCC[C@H]1C(=O)N[C@H](C(=O)N[C@@H](CC(=O)O)C(=O)N[C@H](C(=O)NCC(=O)N1[C@H](C(=O)N[C@@H](Cc2cccc3ccccc23)C(=O)N[C@@H](C)C(=O)N[C@@H](Cc2ccccc2)C(N)=O)C[C@@H]2CCCC[C@@H]21)C(C)C)[C@@H](C)O)C(C)C)C(C)C)C(C)C)[C@@H](C)O)C(C)C [compound 933] (Ac-WVTH[Cit]LAGLLS[Cit]SGGVV[hArg]KNFVPTDVG[Oic][1Nal]AF-NH2)
10 | 0.85 | CC(=O)N[C@@H](Cc1c[nH]c2ccccc12)C(=O)N[C@H](C(=O)N[C@H](C(=O)N[C@@H](Cc1c[nH]cn1)C(=O)N[C@@H](CCCNC(N)=O)C(=O)N[C@@H](CC(C)C)C(=O)N[C@@H](C)C(=O)NCC(=O)N[C@@H](CC(C)C)C(=O)N[C@@H](CC(C)C)C(=O)N[C@@H](CO)C(=O)N[C@@H](CCCNC(N)=O)C(=O)N[C@@H](CO)C(=O)NCC(=O)NCC(=O)N[C@H](C(=O)N[C@H](C(=O)N[C@@H](CCCNC(=N)N)C(=O)N[C@@H](CCCCN)C(=O)N[C@@H](CC(N)=O)C(=O)N[C@@H](Cc1ccccc1)C(=O)N[C@H](C(=O)N1CCC[C@H]1C(=O)N[C@H](C(=O)N[C@@H](CC(=O)O)C(=O)N[C@H](C(=O)NCC(=O)N1[C@H](C(=O)N[C@@H](Cc2ccccc2)C(=O)N[C@@H](C)C(=O)N[C@@H](Cc2ccccc2)C(N)=O)C[C@@H]2CCCC[C@@H]21)C(C)C)[C@@H](C)O)C(C)C)C(C)C)C(C)C)[C@@H](C)O)C(C)C [compound 920] (Ac-WVTH[Cit]LAGLLS[Cit]SGGVVRKNFVPTDVG[Oic]FAF-NH2)

Reference: US8168592B2 (Amgen Inc., priority 2005, dated 2012)
